Source: patent publication US10800774B2, “Heterocyclic inhibitors of ATR kinase” (Board of Regents, The University of Texas System, priority 2017, dated 2020)
pIC50: −log10 of the molar value.

Columns and labels:
[1] = system: ATR-driven phosphorylation of Chk1 kinase at Serine 345 in HT-29 cells; assay: pCHK1 cellular assay (CHK1 p-Ser345 AlphaScreen SureFire); conditions: Homo sapiens, HT-29, read-out: pCHK1 Cell IC50
ATR/ATRIP complex = ATR/ATRIP complex (Homo sapiens (Human), UniProt Q13535); assay: ATR/ATRIP enzymatic assay (Caliper-based); format: biochemical; conditions: FAM-labeled RAD17 peptide, ATP; read-out: ATR/ATRIP Enzyme IC50
ATR/ATRIP complex, sequence (Q13535 whole entry): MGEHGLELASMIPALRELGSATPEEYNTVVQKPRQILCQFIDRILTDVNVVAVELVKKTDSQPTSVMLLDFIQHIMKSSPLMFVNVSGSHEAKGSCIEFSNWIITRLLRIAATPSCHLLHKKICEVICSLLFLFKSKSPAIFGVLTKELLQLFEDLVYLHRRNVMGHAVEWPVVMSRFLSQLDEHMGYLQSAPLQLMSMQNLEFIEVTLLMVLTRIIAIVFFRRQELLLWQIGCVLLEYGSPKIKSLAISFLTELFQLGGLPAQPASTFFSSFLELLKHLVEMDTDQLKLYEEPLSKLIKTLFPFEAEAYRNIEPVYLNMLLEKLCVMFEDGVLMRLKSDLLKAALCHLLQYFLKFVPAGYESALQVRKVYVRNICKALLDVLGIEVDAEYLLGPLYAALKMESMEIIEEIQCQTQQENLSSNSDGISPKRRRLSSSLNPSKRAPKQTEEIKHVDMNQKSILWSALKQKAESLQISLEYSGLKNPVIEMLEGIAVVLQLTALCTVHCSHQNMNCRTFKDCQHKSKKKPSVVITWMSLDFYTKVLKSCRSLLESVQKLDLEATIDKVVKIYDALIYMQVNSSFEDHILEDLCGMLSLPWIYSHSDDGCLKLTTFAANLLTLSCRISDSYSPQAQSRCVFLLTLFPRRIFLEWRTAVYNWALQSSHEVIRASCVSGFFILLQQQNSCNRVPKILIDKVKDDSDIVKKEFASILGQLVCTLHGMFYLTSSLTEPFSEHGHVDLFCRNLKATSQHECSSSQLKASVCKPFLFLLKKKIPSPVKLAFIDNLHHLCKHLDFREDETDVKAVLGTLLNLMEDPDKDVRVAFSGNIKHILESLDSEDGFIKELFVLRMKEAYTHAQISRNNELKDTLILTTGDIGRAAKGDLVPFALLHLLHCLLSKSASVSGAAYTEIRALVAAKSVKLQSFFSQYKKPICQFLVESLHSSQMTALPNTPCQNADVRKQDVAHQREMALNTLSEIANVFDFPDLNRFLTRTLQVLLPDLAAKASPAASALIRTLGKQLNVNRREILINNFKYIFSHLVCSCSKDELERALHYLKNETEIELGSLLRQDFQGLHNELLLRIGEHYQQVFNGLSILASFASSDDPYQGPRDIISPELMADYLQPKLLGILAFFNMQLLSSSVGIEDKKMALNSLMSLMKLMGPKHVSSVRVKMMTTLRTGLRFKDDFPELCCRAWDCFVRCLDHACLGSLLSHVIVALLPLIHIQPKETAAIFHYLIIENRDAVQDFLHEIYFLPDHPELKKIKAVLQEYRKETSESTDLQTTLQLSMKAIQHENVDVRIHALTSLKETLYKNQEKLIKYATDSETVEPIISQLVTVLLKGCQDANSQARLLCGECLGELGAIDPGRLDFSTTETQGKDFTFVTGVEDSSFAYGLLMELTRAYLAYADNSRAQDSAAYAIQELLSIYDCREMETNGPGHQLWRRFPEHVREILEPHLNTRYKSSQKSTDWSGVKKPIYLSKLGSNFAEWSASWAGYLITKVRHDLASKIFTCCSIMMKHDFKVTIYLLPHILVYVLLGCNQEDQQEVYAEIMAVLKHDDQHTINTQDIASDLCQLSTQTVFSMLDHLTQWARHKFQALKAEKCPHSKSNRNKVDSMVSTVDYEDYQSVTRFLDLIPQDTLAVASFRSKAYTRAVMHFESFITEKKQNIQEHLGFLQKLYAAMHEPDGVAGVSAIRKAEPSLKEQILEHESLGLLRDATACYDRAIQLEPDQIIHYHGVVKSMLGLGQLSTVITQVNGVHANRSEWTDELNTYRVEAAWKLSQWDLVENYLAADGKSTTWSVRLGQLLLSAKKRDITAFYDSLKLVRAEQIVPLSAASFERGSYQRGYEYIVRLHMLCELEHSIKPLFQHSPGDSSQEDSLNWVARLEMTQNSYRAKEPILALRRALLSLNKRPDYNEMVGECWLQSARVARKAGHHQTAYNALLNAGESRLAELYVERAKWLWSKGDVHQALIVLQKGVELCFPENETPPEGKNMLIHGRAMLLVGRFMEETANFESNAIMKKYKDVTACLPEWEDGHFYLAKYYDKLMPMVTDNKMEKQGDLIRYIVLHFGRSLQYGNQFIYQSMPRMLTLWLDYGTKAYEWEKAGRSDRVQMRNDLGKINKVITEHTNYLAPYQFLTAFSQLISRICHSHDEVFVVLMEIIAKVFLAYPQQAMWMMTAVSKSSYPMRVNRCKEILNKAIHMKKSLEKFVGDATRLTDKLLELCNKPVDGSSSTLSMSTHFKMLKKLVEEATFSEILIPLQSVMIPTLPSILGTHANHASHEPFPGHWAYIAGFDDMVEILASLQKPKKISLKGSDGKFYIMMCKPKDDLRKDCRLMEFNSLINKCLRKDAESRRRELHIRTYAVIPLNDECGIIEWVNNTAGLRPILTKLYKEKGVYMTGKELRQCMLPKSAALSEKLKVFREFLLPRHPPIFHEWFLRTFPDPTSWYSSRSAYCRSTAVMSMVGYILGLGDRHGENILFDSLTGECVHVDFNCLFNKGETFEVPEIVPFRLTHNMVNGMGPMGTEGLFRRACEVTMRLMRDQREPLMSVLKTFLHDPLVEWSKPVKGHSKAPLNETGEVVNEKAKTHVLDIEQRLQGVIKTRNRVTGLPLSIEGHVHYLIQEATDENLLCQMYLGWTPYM
ATR/ATRIP complex, sequence (Q8WXE1 whole entry partner): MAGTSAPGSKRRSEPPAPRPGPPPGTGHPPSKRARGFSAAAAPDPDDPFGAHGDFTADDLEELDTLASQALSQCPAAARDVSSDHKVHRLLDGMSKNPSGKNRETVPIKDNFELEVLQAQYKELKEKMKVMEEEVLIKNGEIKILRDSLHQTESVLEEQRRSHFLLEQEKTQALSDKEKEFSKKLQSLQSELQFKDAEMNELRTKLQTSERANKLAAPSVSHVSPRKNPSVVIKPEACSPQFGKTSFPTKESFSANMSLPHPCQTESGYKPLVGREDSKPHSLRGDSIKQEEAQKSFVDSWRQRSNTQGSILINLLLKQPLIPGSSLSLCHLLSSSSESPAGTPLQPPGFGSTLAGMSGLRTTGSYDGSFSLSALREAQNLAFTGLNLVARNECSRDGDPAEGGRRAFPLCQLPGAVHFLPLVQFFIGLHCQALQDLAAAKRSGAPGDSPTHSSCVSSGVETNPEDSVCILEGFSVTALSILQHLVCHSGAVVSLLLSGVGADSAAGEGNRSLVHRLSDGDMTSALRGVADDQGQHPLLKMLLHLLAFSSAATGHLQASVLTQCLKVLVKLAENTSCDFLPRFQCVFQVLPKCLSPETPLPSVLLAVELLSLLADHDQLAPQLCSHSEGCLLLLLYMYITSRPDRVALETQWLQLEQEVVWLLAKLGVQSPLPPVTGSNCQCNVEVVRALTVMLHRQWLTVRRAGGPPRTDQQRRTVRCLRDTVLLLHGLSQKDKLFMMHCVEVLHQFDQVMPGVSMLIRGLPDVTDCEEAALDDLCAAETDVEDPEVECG
Procedure: Human full-length FLAG-TEV-ATR and His6-ATRIP were co-expressed in HEK293 cells. […] The sample was loaded into a column, and then washed with buffer A three times. Protein was subsequently eluted with 2 ml of buffer B (buffer A+200 μg/ml 3×FLAG peptide).
The ability of new chemical matter to inhibit the ATR catalytic activity in this ATR/ATRIP complex was assessed using a Caliper-based assay. A 2× enzyme solution (i.e., 4 nM enzyme) was prepared using 1× Kinase Reaction Buffer (25 mM HEPES pH 8, 0.0055% Brij-35, 10 mM MnCl2, and 1 mM DTT). […] 10 μL of the 2× enzyme solution was transferred to an assay plate containing 60 nL of test compound (from a 3× serial dilution) in 100% DMSO. Following a 30 minute incubation at 28° C., 10 μL of the 2× peptide solution was then transferred to the same assay plate. The reaction was allowed to incubate at 28° C. for 6 hours. After adding […] of stop buffer (100 mM HEPES pH 7.5, 0.015% Brij-35, 0.2% Coating-3 Reagent (PerkinElmer, catalog # PN760050), and 50 mM EDTA), data were collected on a Caliper instrument. Conversion values were converted to inhibition values via the following equation: % inhibition=(max−conversion)/(max−min)*100, whereby “max” corresponds to the DMSO control and “min” corresponds to the low control. IC50 values were calculated using the following equation in XLFit: Y=Bottom+(Top−Bottom)/1+(IC50/X)^HillSlope).

Structure (SMILES) | pIC50 [1] | pIC50 (ATR/ATRIP complex)
C[C@@H]1COCCN1c1cc(C2CCCS2(=O)=O)nc(-c2cc(Cl)nc3[nH]ccc23)n1 (single isomer, unassigned) [Example 5a] | 6.75 | 7.51
C[C@@H]1COCCN1c1cc([C@H]2CCCS2(=O)=O)nc(-c2cc(Cl)nc3[nH]ccc23)n1 (single isomer, unassigned) [Example 5b] | 6.36 | 7.14
CCN1CCCN(c2cc(N3CCOC[C@H]3C)nc(-c3ccnc4[nH]ccc34)n2)S1(=O)=O [Example 1, (R)-2-Ethyl-6-(6-(3-methylmorpholino)-2-(1H-pyrrolo[2,3-b]pyridin-4-yl)pyrimidin-4-yl)-1,2,6-thiadiazinane 1,1-dioxide] | 7.02 | 8.15
C[C@@H]1COCCN1c1cc(C2CCN(C)C2=O)nc(-c2ccnc3[nH]ccc23)n1 (stereo partly drawn) [Example 3, 1-Methyl-3-(6-((R)-3-methylmorpholino)-2-(1H-pyrrolo[2,3-b]pyridin-4-yl)pyrimidin-4-yl)pyrrolidin-2-one] | 6.30 | 7.32
C[C@@H]1COCCN1c1cc(N2CCCN(C)S2(=O)=O)nc(-c2cc(Cl)nc3[nH]ccc23)n1 [Example 6, (R)-2-(2-(6-Chloro-1H-pyrrolo[2,3-b]pyridin-4-yl)-6-(3-methylmorpholino)pyrimidin-4-yl)-6-methyl-1,2,6-thiadiazinane 1,1-dioxide] | 6.30 | 7.28
CC(C)N1CCCN(c2cc(N3CCOC[C@H]3C)nc(-c3ccnc4[nH]ccc34)n2)S1(=O)=O [Example 8, 2-{6-[(3R)-3-Methylmorpholin-4-yl]-2-{1H-pyrrolo[2,3-b]pyridin-4-yl}pyrimidin-4-yl}-6-(propan-2-yl)-1λ^6,2,6-thiadiazinane-1,1-dione] | 6.52 | 8.15
CCN1CCCN(c2cc(N3CCOC[C@H]3C)nc(-c3cc(Cl)nc4[nH]ccc34)n2)S1(=O)=O [Example 9, 2-(2-{6-Chloro-1H-pyrrolo[2,3-b]pyridin-4-yl}-6-[(3R)-3-methylmorpholin-4-yl]pyrimidin-4-yl)-6-ethyl-1λ^6,2,6-thiadiazinane-1,1-dione] | 6.24 | 6.94
C[C@@H]1COCCN1c1cc(C2CCCN(S(C)(=O)=O)C2)nc(-c2ccnc3[nH]ccc23)n1 (stereo partly drawn) [Example 10, (3R)-4-[6-(1-Methane-sulfonylpiperidin-3-yl)-2-{1H-pyrrolo[2,3-b]pyridin-4-yl}pyrimidin-4-yl]-3-methylmorpholine] | 6.87 | 8.15
C[C@@H]1COCCN1c1cc(C2CCN(S(C)(=O)=O)C2)nc(-c2ccnc3[nH]ccc23)n1 (stereo partly drawn) [Example 11, (3R)-4-[6-(1-Methane-sulfonylpyrrolidin-3-yl)-2-{1H-pyrrolo[2,3-b]pyridin-4-yl}pyrimidin-4-yl]-3-methylmorpholine] | 7.01 | 8.10
CC(=O)N1CCC(c2cc(N3CCOC[C@H]3C)nc(-c3ccnc4[nH]ccc34)n2)CC1 [Example 12, 1-(4-{6-[(3R)-3-Methylmorpholin-4-yl]-2-{1H-pyrrolo[2,3-b]pyridin-4-yl}pyrimidin-4-yl}piperidin-1-yl) ethan-1-one] | 6.89 | 7.62
COC(=O)N1CCC(c2cc(N3CCOC[C@H]3C)nc(-c3ccnc4[nH]ccc34)n2)CC1 [Example 13, Methyl 4-{6-[(3R)-3-methylmorpholin-4-yl]-2-{1H-pyrrolo[2,3-b]pyridin-4-yl}pyrimidin-4-yl}piperidine-1-carboxylate] | 6.73 | 8.00
C[C@@H]1COCCN1c1cc(C2CCOCC2)nc(-c2ccnc3[nH]ccc23)n1 [Example 14, (3R)-3-Methyl-4-[6-(oxan-4-yl)-2-{1H-pyrrolo[2,3-b]-pyridin-4-yl}pyrimidin-4-yl]-morpholine] | 6.78 | 7.77
CC(=O)N1CCCC(c2cc(N3CCOC[C@H]3C)nc(-c3ccnc4[nH]ccc34)n2)C1 (stereo partly drawn) [Example 15, 1-(3-{6-[(3R)-3-Methylmorpholin-4-yl]-2-{1H-pyrrolo[2,3-b]pyridin-4-yl}pyrimidin-4-yl}piperidin-1-yl) ethan-1-one] | 6.68 | 8.00
CC(=O)N1CCC(c2cc(N3CCOC[C@H]3C)nc(-c3ccnc4[nH]ccc34)n2)C1 (stereo partly drawn) [Example 16, 1-(3-{6-[(3R)-3-Methyl-morpholin-4-yl]-2-{1H-pyrrolo[2,3-b]pyridin-4-yl}-pyrimidin-4-yl}pyrrolidin-1-yl) ethan-1-one] | 6.62 | 7.72
COC(=O)N1CCC(c2cc(N3CCOC[C@H]3C)nc(-c3ccnc4[nH]ccc34)n2)C1 (stereo partly drawn) [Example 17, Methyl 3-{6-[(3R)-3-methylmorpholin-4-yl]-2-{1H-pyrrolo[2,3-b]pyridin-4-yl}pyrimidin-4-yl}-pyrrolidine-1-carboxylate] | 6.86 | 8.00
CNC(=O)N1CCC(c2cc(N3CCOC[C@H]3C)nc(-c3ccnc4[nH]ccc34)n2)C1 (stereo partly drawn) [Example 18, N-methyl-3-{6-[(3R)-3-methylmorpholin-4-yl]-2-{1H-pyrrolo[2,3-b]pyridin-4-yl}pyrimidin-4-yl}-pyrrolidine-1-carboxamide] | 6.72 | 7.85
C[C@@H]1COCCN1c1cc(C2CCCN(C)C2=O)nc(-c2ccnc3[nH]ccc23)n1 (stereo partly drawn) [Example 19, 1-Methyl-3-{6-[(3R)-3-methylmorpholin-4-yl]-2-{1H-pyrrolo[2,3-b]pyridin-4-yl}pyrimidin-4-yl} piperidin-2-one] | 6.04 | 7.33
CCC(=O)N1CCC(c2cc(N3CCOC[C@H]3C)nc(-c3ccnc4[nH]ccc34)n2)CC1 [Example 20, 1-(4-{6-[(3R)-3-Methylmorpholin-4-yl]-2-{1H-pyrrolo[2,3-b]pyridin-4-yl}pyrimidin-4-yl}piperidin-1-yl) propan-1-one] | 7.29 | 7.82
C[C@@H]1COCCN1c1cc(C2CCN(C(=O)C3CC3)CC2)nc(-c2ccnc3[nH]ccc23)n1 [Example 21, (3R)-4-[6-(1-Cyclopropanecarbonylpiperidin-4-yl)-2-{1H-pyrrolo[2,3-b]pyridin-4-yl}pyrimidin-4-yl]-3-methylmorpholine] | 7.09 | 7.66
CCOC(=O)N1CCC(c2cc(N3CCOC[C@H]3C)nc(-c3ccnc4[nH]ccc34)n2)CC1 [Example 22, Ethyl 4-{6-[(3R)-3-methylmorpholin-4-yl]-2-{1H-pyrrolo[2,3-b]pyridin-4-yl}pyrimidin-4-yl} piperidine-1-carboxylate] | 6.96 | 7.82
C[C@@H]1COCCN1c1cc(C2CCN(S(=O)(=O)C3CC3)CC2)nc(-c2ccnc3[nH]ccc23)n1 [Example 23, (3R)-4-{6-[1-(Cyclopropane-sulfonyl)piperidin-4-yl]-2-{1H-pyrrolo[2,3-b]pyridin-4-yl}pyrimidin-4-yl}-3-methylmorpholine] | 7.68 | 8.30
COCC(=O)N1CCC(c2cc(N3CCOC[C@H]3C)nc(-c3ccnc4[nH]ccc34)n2)CC1 [Example 24, 2-Methoxy-1-(4-{6-[(3R)-3-methylmorpholin-4-yl]-2-{1H-pyrrolo[2,3-b]pyridin-4-yl}pyrimidin-4-yl}piperidin-1-yl) ethan-1-one] | 7.07 | 7.89
